Experimental data reported in patent US6967196B1, “Sulfonamide compounds and uses thereof” (Bristol-Myers Squibb Company, priority 1999, dated 2005).
Counter-ions that a name gives are not always drawn.

Tested on: amyloid β production in transfected H4 (human neuroglioma) cells stably expressing APP constructs
Assay: In vitro cell-based assay of inhibitors of amyloid β production (ELISA)
Conditions: Homo sapiens, 16 h, transfected H4 cells expressing APP, approximately 16 hours incubation, amyloid β in medium by ELISA; read-out: ACTIVITY (IC50, inhibition of amyloid β production)
How it was run: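 Test agents are screened at 10-100 μM for about 16 hours on cells stably expressing wild-type or variant APP. Secreted Aβ is measured by ELISA and compared with control-treated cells.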

IC50 [nM] | Compound
100 to 500 | CCOCCCNC(=O)[C@@H](C)N(c1cc(Cl)ccc1F)S(=O)(=O)c1ccc(Cl)cc1 [Example 1320]
> 500 | C[C@H](C(=O)NCCc1ccc(F)cc1)N(c1cc(Cl)ccc1F)S(=O)(=O)c1ccc(Cl)cc1 [Example 1326]
> 500 | C[C@H](C(=O)NC[C@]12CC3C[C@H](C[C@H](C3)C1)C2)N(c1cc(Cl)ccc1F)S(=O)(=O)c1ccc(Cl)cc1 [Example 1306]

Same assay, conditions: Homo sapiens, 16 h, transfected H4 cells stably expressing APP constructs; approximately 16 hours incubation; amyloid β in medium by ELISA; read-out: ACTIVITY (IC50, inhibition of amyloid β production)

IC50 [nM] | Compound
≤ 25 | C[C@H](CCN1CCCCC1CS(C)(=O)=O)N(c1cc(Cl)ccc1Cl)S(=O)(=O)c1ccc(Cl)cc1 (stereo partly drawn) [Example 1102, 4-chloro-N-(2,5-dichlorophenyl)-N-[3-[2-[(methylsulfonyl)methyl]-1-piperidinyl]-1(R)-methylpropyl]benzenesulfonamide]
100 to 500 | C[C@H](CCCS(=O)(=O)O)N(c1cc(Cl)ccc1Cl)S(=O)(=O)c1ccc(Cl)cc1 [Example 1194, (4R)-4-[N-[2,5-dichlorophenyl][(4-chlorophenyl)sulfonyl]amino]pentylsulfonic acid]
≤ 25 | C[C@H](CCC[N+](=O)[O-])N(c1cc(Cl)ccc1F)S(=O)(=O)c1ccc(Cl)cc1 [Example 1107, 4-chloro-N-(5-chloro-2-fluorophenyl)-N-[4-nitro-1(R)-methylbutyl]benzenesulfonamide]
≤ 25 | C[C@H](CCCS(=O)(=O)N1CCC1)N(c1cc(F)ccc1F)S(=O)(=O)c1ccc(Cl)cc1 [Example 1200, 4-chloro-N-[2,5-difluorophenyl]-N-[4-[(1-azetidinyl)sulfonyl]-1(R)-methylbutyl]benzenesulfonamide]
100 to 500 | C[C@H](CCCNC(=O)OCc1ccccc1)N(c1cc(Cl)ccc1Cl)S(=O)(=O)c1ccc(Cl)cc1 [Example 1155, 4-chloro-N-(2,5-dichlorophenyl)-N-[4-[[(benzoxy)carbonyl]amino]-1-methylbutyl]benzenesulfonamide]

Same assay, conditions: Homo sapiens, 16 h, transfected H4 cells stably expressing APP; approx. 16 h incubation; amyloid β in medium by ELISA; read-out: ACTIVITY (IC50, inhibition of amyloid β production)

Compound | IC50 [nM]
O=S(=O)(c1ccc(Cl)cc1)N(Cc1ccccc1OCCCN1CCCCC1)c1cccc(Cl)c1 [Example 663, 4-chloro-N-(3-chlorophenyl)-N-{2-[3-(1-piperidinyl)propoxy]benzyl}benzenesulfonamide hydrochloride] | 100 to 500
O=C(c1cccc2ccccc12)N1CCCCC1CCOc1ccccc1CN(c1cc(F)ccc1F)S(=O)(=O)c1ccc(Cl)cc1 (stereo not shown) [Example 792, 4-chloro-N-(2,5-difluorophenyl)-N-(2-{2-[1-(1-naphthoyl)-2-piperidinyl]ethoxy}benzyl)benzenesulfonamide] | 100 to 500
O=S(=O)(c1ccc(Cl)cc1)N(Cc1ccccc1OCCCN1CCCCC1)c1cccc(Br)c1 [Example 804, N-(3-bromophenyl)-4-chloro-N-{2-[3-(1-piperidinyl)propoxy]benzyl}benzenesulfonamide hydrochloride] | 100 to 500

Same assay, conditions: Homo sapiens, 16 h, transfected H4 cells stably expressing APP; approximately 16 hours incubation; amyloid β in medium by ELISA; Table B; read-out: ACTIVITY (IC50, inhibition of amyloid β production)

IC50 [nM] | Compound
50 to 100 | C[C@H](c1ccc(F)cc1COCc1cccnc1)N(c1cc(F)ccc1F)S(=O)(=O)c1ccc(Cl)cc1 [Example 380, 4-chloro-N-(2,5-difluorophenyl)-N-((1R)-1-{4-fluoro-2-[(3-pyridinylmethoxy)methyl]phenyl}ethyl)benzenesulfonamide]
50 to 100 | CC(C)CNC(=O)OCc1cc(F)ccc1[C@@H](C)N(c1cc(F)ccc1F)S(=O)(=O)c1ccc(Cl)cc1 [Example 398, 2-((1R)-1-{[(4-chlorophenyl)sulfonyl]-2,5-difluoroanilino}ethyl)-5-fluorobenzyl isobutylcarbamate]

Same assay, conditions: Homo sapiens, 16 h, transfected H4 cells stably expressing APP; approximately 16 hours incubation; amyloid β in medium by ELISA; read-out: ACTIVITY (IC50, inhibition of amyloid β production)

IC50 [nM] | Compound
> 500 | O=S(=O)(c1ccccc1)N(Cc1ccccc1CCCN1CCCCC1)c1ccccc1 [Example 1031, N-phenyl-N-{2-[3-(1-piperidinyl)propyl]benzyl}benzenesulfonamide]
> 500 | C#Cc1ccccc1CN(c1ccccc1)S(=O)(=O)c1ccc(Cl)cc1 [Example 991, 4-chloro-N-(2-ethynylbenzyl)-N-phenylbenzenesulfonamide]
> 500 | C[C@H](c1ccccc1CCCn1ccnc1)N(c1cc(F)ccc1F)S(=O)(=O)c1ccc(Cl)cc1 [Example 1056, 4-chloro-N-(2,5-difluorophenyl)-N-((1R)-1-{2-[3-(1H-imidazol-1-yl)propyl]phenyl}ethyl)benzenesulfonamide hydrochloride]
> 500 | O=S(=O)(c1ccc(Cl)cc1)N(Cc1ccccc1OCCC1CCCCN1Cc1cccc(F)c1F)c1cc(F)ccc1F (stereo not shown) [Example 933, 4-chloro-N-(2-{2-[1-(2,3-difluorobenzyl)-2-piperidinyl]ethoxy}benzyl)-N-(2,5-difluorophenyl)benzenesulfonamide]

Same assay, conditions: transfected H4 cells stably expressing APP constructs; approximately 16 hours incubation; amyloid β in medium by ELISA; read-out: ACTIVITY (IC50, inhibition of amyloid β production)

Compound | IC50 [nM]
CSC1CCN(CC[C@@H](C)N(c2cc(Cl)ccc2Cl)S(=O)(=O)c2ccc(Cl)cc2)C1 (stereo partly drawn) [Example 1147, 4-chloro-N-(2,5-dichlorophenyl)-N-[3-[(3-methylthio)-1-pyrrolidinyl]-1(R)-methylpropyl]benzenesulfonamide] | 100 to 500
CC(C)S(=O)(=O)CCC[C@@H](C)N(c1cc(Cl)ccc1CO)S(=O)(=O)c1ccc(Cl)cc1 [Example 1220] | ≤ 25
CSCCC[C@@H](C)N(c1cc(Cl)ccc1CO)S(=O)(=O)c1ccc(Cl)cc1 [Example 1228, 4-chloro-N-[5-chloro-2-(hydroxymethyl)phenyl]-N-[1(R)-methyl-(4-methylthio)butyl]benzenesulfonamide] | ≤ 25
CC(C)[S+]([O-])CCC[C@@H](C)N(c1cc(Cl)ccc1CO)S(=O)(=O)c1ccc(Cl)cc1 (stereo partly shown) [Example 1219] | ≤ 25
CC(C)[C@H](NC(=O)CCC[C@@H](C)N(c1cc(Cl)ccc1F)S(=O)(=O)c1ccc(Cl)cc1)C(=O)O [Example 1268, (R)-4-Chloro-N-(5-chloro-2-fluorophenyl)-N-[5-[N-(S)-[1-(carboxy)-2-methylpropyl]amino]-1-methyl-5-oxopentyl]benzenesulfonamide] | 100 to 500
C[C@H](CCCCN1CCC(S(C)(=O)=O)CC1)N(c1cc(Cl)ccc1Cl)S(=O)(=O)c1ccc(Cl)cc1 [Example 1123, 4-chloro-N-(2,5-dichlorophenyl)-N-[5-[(4-methylsulfonyl)-1-piperidinyl]-1(R)-methylpentyl]benzenesulfonamide] | 50 to 100
CC(C)Oc1c(NCCC[C@@H](C)N(c2cc(Cl)ccc2F)S(=O)(=O)c2ccc(Cl)cc2)c(=O)c1=O [Example 1122, 4-chloro-N-(5-chloro-2-fluorophenyl)-N-[4-(2-isopropoxy-3,4-dioxo-1-cyclobutenyl)amine-1(R)-methylbutyl]benzenesulfonamide] | 50 to 100

Same assay, conditions: transfected H4 cells stably expressing APP; approx. 16 h incubation; amyloid β in medium by ELISA; read-out: ACTIVITY (IC50, inhibition of amyloid β production)

Compound | IC50 [nM]
N-{3-[2-(1-{[(4-chlorophenyl)sulfonyl]-2,5-difluoroanilino}ethyl)phenoxy]propyl}-3,5-dimethoxy-N-methylbenzamide [Example 802] | 100 to 500
COC(=O)[C@H](CC(C)C)NC(=O)CCCC[C@@H](C)N(c1cc(Cl)ccc1F)S(=O)(=O)c1ccc(Cl)cc1 [Example 543, (R)-4-Chloro-N-(5-chloro-2-fluorophenyl)-N-[6-[N-(S)-[1-(methoxycarbonyl)-3-methylbutyl]amino]-1-methyl-6-oxohexyl]benzenesulfonamide] | 100 to 500
2-((1R)-1-{[(4-chlorophenyl)sulfonyl]-2,5-difluoroanilino}ethyl)-5-fluorobenzyl bis(2-methoxyethyl)carbamate [Example 760] | 100 to 500

The remaining lines, values ahead:

IC50 [nM] | Compound
100 to 500 | 2,4,6-trichloro-N-{3-[2-(1-{[(4-chlorophenyl)sulfonyl]-2,5-difluoroanilino}ethyl)phenoxy]propyl}-N-methylbenzamide [Example 713]
100 to 500 | 4-bromo-N-{3-[2-(1-{[(4-chlorophenyl)sulfonyl]-2,5-difluoroanilino}ethyl)phenoxy]propyl}-N-methylbenzamide [Example 683]

Same assay, conditions: transfected H4 cells stably expressing APP; approximately 16 hours incubation; amyloid β in medium by ELISA; read-out: ACTIVITY (IC50, inhibition of amyloid β production)

IC50 [nM] | Compound
> 500 | N-{2-[2-(1-{[(4-chlorophenyl)sulfonyl]-2,5-difluoroanilino}ethyl)phenoxy]ethyl}-N-ethyltetradecanamide [Example 928]
> 500 | 3,5-dichloro-N-{3-[2-(1-{[(4-chlorophenyl)sulfonyl]-2,5-difluoroanilino}ethyl)phenoxy]propyl}-N-methylbenzamide [Example 950]
100 to 500 | N-{2-[2-(1-{[(4-chlorophenyl)sulfonyl]-2,5-difluoroanilino}ethyl)phenoxy]ethyl}-N-methyltetradecanamide [Example 854]
100 to 500 | CN(CCCOc1ccccc1CN(c1cc(F)ccc1F)S(=O)(=O)c1ccc(Cl)cc1)C(=O)/C=C\c1ccccc1 [Example 841, (2Z)-N-{3-[2-({[(4-chlorophenyl)sulfonyl]-2,5-difluoroanilino}methyl)phenoxy]propyl}-N methyl-3-phenyl-2-propenamide]
> 500 | O=S(=O)(c1ccc(F)cc1)n1c(-c2ccccc2OCCCN2CCCCC2)cc2ccccc21 [Example 1032, 2-{1-[(4-flurophenyl}sulfonyl]-1H-indol-2-yl}phenyl 3-(1-piperidinyl)propyl ether trifluoroacetate]
